Measurements as given in publication PMC4886613 (Journal of natural products, 2009).

How the values were obtained:
Type in all cases: cell-based
[1] = test system: culture of Leishmania donovani; test: in vitro antileishmanial activity; conditions: in words
[2] = test system: Plasmodium falciparum; test: antimalarial activity; conditions: in words; clone not specified
[3] = test system: Candida albicans ATCC 90028; test: in vitro antifungal activity, Candida albicans; conditions: ATCC90028, read-out: antifungal C. albicans IC50
[4] = test system: P. falciparum (W2 clone); test: microbe, parasite or virus in culture; conditions: Plasmodium falciparum, W2, read-out: antimalarial P. falciparum W2 (IC50)
[5] = test system: Plasmodium falciparum (D6 clone); test: in vitro antimalarial activity, D6 clone; conditions: D6, read-out: antimalarial P. falciparum D6 (IC50)

Structure (SMILES) | antileishmanial activity [1] | antimalarial activities [2] | further results
CCCCCc1cc(O)c2c(c1OC(C)=O)OC(C)(CCC=C(C)C)C=C2 (racemic) [Compound 1, (±)-4-acetoxycannabichromene] | moderate antileishmanial activity | mild antimalarial activities | –
C=C(C)C(O)CCC1(C)C=Cc2c(O)cc(CCCCC)cc2O1 (racemic) [Compound 2, (±)-3″-hydroxy-Δ^(4″,5″)-cannabichromene] | moderate antileishmanial activity | – | –
CCCCCc1cc(O)c(C/C=C(\C)CCC=C(C)C)c(OC(C)=O)c1O [Compound 5, 5-acetyl-4-hydroxycannabigerol] | strong antileishmanial activity | mild antimalarial activities | –
CCCCCc1c(C/C=C(\C)CCC=C(C)C)c(O)cc(O)c1OC(C)=O [Compound 6, 4-acetoxy-2-geranyl-5-hydroxy-3-n-pentylphenol] | moderate antileishmanial activity | – | –
C[C@@H]1[C@H](O)[C@@H](C)/C=C/C=C/C=C/C=C/C=C/C=C/C=C/[C@H](O[C@@H]2O[C@H](C)[C@@H](O)[C@H](N)[C@@H]2O)C[C@@H]2O[C@](O)(C[C@@H](O)C[C@@H](O)[C@H](O)CC[C@@H](O)C[C@@H](O)CC(=O)O[C@H]1C)C[C@H](O)[C@H]2C(=O)O [amphotericin B] | – | – | IC50 [3]: 300 nM
CCN(CC)CCCC(C)Nc1ccnc2cc(Cl)ccc12 (stereo not drawn) [chloroquine] | – | – | IC50 [4]: 500 nM; IC50 [5]: 100 nM
